Bounds are passed on as bounds.

7 substances from US6281201A, “Base-modified derivatives of 2',5'-oligoadenylate and antiviral uses thereof” (Temple University- of the Commonwealth System of Higher …, priority 1999, dated 2001) can be followed below.

The subject of one assay is HIV-1. Nature of the assay: Inhibition of HIV-1 replication: infected centers assay, HIV-1-induced syncytia formation. Type of assay: cell-based, HIV-1 strain IIIB. The settings on record: 300 μM (table footnote: 300 μm [sic]); PBL treated 2 h, HIV-1 IIIB MOI approx. 0.1; Sup T1 cells, read at 72 hours; mean of triplicates, variance did not exceed 5-10%. Here is the method:
(§1) Three studies were performed to determine the antiviral activity of the (2'-5')oligonucleotide derivatives of the present invention: (i) inhibition of HIV-1-replication, (ii) inhibition of HIV-1 reverse-transcriptase (RT) activity, and (iii) activation of recombinant human GST-RNase L. All compounds were tested at a concentration of 300 μM.
The infected centers assay as described by Henderson et al., Virology 1991, 182, 186, was used to measure the ability of the trimer core compounds of the invention to inhibit HIV-1 induced syncytia formation, an indicator of HIV-1 replication in T cells. Freshly isolated peripheral blood lymphocytes (PBL) were treated with 2-5A trimer or derivatives for 2 hours and infected with HIV-1 strain IIIB at a multiplicity of infection of approximately 0.1. The infected PBL were maintained in RPMI-1640 medium supplemented with 10% (v/v) heat-inactivated fetal calf serum at 37° C. in a humidified 5% CO2 in air atmosphere. After 48 hours, the cells were washed twice in Hank's balanced salt solution, serially diluted and seeded into multiple wells of a 96-well microtiter plate. Immediately, 2×10^5 exponentially growing Sup T1 cells were added to each well; Sup T1 cells readily form a syncytium with a cell which is productively infected with HIV-1. The wells were examined daily for the presence of syncytia, using a tissue culture microscope. The first signs of syncytia formation can be seen in 12 hours, with some complete syncytia developing by 24 hours. Final results were read at 72 hours. Each syncytium was counted as a single infected cell. The number of syncytia per seeded cell is determined and expressed as an infected center per infected cell. The number of syncytia per 10^4 cells was 121±16 for the control Sup T1 cells.
^b Inhibition of HIV-1 replication was determined by HIV-1-induced
syncytia formation (fold reduction) for each compound. The number of
syncytia/10^4 cells was 121 ± 16 for the control Sup T1 cells. The

Assay [1] deals with HIV-1 reverse-transcriptase. Kind of assay: Inhibition of HIV-1 reverse-transcriptase (RT) activity in culture supernatant of infected Sup T1 cells. The note with it: 300 μM, 6 h pretreatment of Sup T1 cells; supernatant 96 h post-infection; mean of duplicates, variance did not exceed 5-10%. Type of assay: cell-based. Here is the method:
as §1
Sup T1 cells were treated with trimer core compound at 300 μM for 6 hours and then infected with HIV-1 at a multiplicity of infection of approximately 0.1. At 96 hours post-infection, culture supernatant was removed and HIV-1 RT activity was assayed […] as described by Henderson et al., Virology 1991, 182, 186. Briefly in this method, 25 μl of culture supernatant was added to a 50 μl cocktail containing 50 mM Tris (pH 8.0), 20 mM dithiothreitol, 10 mM MgCl2, 60 mM NaCl, 0.05% Nonidet p-40, 5 μg/ml oligodeoxythymidylic acid, 10 μg/ml polyriboadenylic acid, 10 μM deoxythymidine triphosphate and 1mCi [α^32 P]thymidine 5'-triphosphate. The mixture was incubated at 37° C. for 2 hours. Fifty microliters of the cocktail were then spotted onto diethylaminoethyl (DEAE) paper, dried, washed with 2×SSC solution (three times for 10 minutes each time) and 95% ethanol (two times for 5 minutes each time), dried and exposed to radiographic film for 18 to 24 hours at -80° C. The filters were cut and final quantitation was determined by scintillation spectrometry.
The data for the HIV-1 RT activity is shown in Table 1 as a percent of RT activity. Control values for RT activity ranged from 15,000 to 16,000 dpm [α^32 P] incorporated.
^c Percent inhibition of reverse-transcriptase (HIV-1 RT) activity.
Control values for HIV-1 RT activity ranged from 15000 to 16000 dpm
incorporated. The mean of duplicate determinations is shown; variance did

Assay [2] has as its system recombinant human GST-RNase L. Kind of assay: Activation of recombinant human GST-RNase L (hydrolysis of poly(U)-3'-[^32 P]pCp). Format: biochemical. The settings on record: 300 μM; mean of duplicates, variance did not exceed 5-10%. Here is the method: as §1
Human recombinant RNase L was expressed in E. coli(DH5α) as a fusion protein of glutathione-S-transferase (GST). Activation of human recombinant GST-RNase L was measured as the percent of poly(U)[^32 P]pCp hydrolyzed in the presence of authentic 2',5'-oligoadenylate trimer core or trimer core analog of the invention as described by Sobol et al., J. Biol. Chem. 1995, 270, 5963. The data is shown in Table 1 as the mean of duplicate determinations.
^d The activation of recombinant human RNase L was measured as the
percent hydrolysis of poly(U)-3'-[^32 P]pCp in the presence of the
trimers 22-29. The mean of duplicate determinations is shown; variance did

With “1-(β-D-Ribofuranosyl)-1H-1,2,4-triazole-3-carboxamide]yl-(2'-5')-adenylyl-(2'-5')-adenosine Bis(triethylammonium) Salt [Compound 28]”, in the assay on HIV-1, the “Syn: inhibition of HIV-1 replication, HIV-1-induced syncytia formation (fold reduction)” value (from here on “Syn: inhibition … (fold reduction)”) is 1.2 fold. In addition, the “RT: percent inhibition of reverse-transcriptase (HIV-1 RT) activity” value (“RT: percent inhibition” for short) in assay [1] stood at 99.5%. In addition, the “RNase L: activation of recombinant human RNase L, percent hydrolysis of poly(U)-3'-[^32 P]pCp” value in assay [2] turned out to be 0%.

Turning to “Adenylyl-(2'-5')-N^6 -benzyladenylyl-(2'-5')-adenosine Bis(triethylammonium) Salt [Compound 23]”, the “Syn: inhibition … (fold reduction)” value with HIV-1 was more than 1500 fold. The “RT: percent inhibition” value in assay [1] was 7.6%. Moreover, the “RNase L: activation of recombinant human RNase L, percent hydrolysis of poly(U)-3'-[^32 P]pCp” value in assay [2] was 34.8%.

In the case of “Adenylyl-(2'-5')-[1-(β-D-ribofuranosyl)-1H-1,2,4-triazole-3-carboxamide]yl-(2'-5')-adenosine Bis(triethylammonium) Salt [Compound 27]”, in the assay on HIV-1, the “Syn: inhibition … (fold reduction)” value was found to be 7.0 fold. Further, the “RT: percent inhibition” value in assay [1] stood at 99.7%. In assay [2], the “RNase L: activation of recombinant human RNase L, percent hydrolysis of poly(U)-3'-[^32 P]pCp” value is 9.4%.

In the case of “Adenylyl-(2'-5')-adenylyl-(2'-5')-1-(β-D-ribofuranosyl)-1H-1,2,4-triazole-3-carboxamide Bis(triethylammonium) Salt [Compound 26]”, the “Syn: inhibition … (fold reduction)” value in the assay with HIV-1 is given as 1.6 fold. In addition, the “RT: percent inhibition” value in assay [1] was 99.7%. In assay [2], the “RNase L: activation of recombinant human RNase L, percent hydrolysis of poly(U)-3'-[^32 P]pCp” value turned out to be 87.7%.

For “Adenylyl-(2'-5')-adenylyl-(2'-5')-N^6 -benzyladenosine Bis(triethylammonium) Salt [Compound 22]”, the “Syn: inhibition … (fold reduction)” value with HIV-1 is reported as more than 1500 fold. In addition, in assay [1], the “RT: percent inhibition” value was 33%. In assay [2], the “RNase L: activation of recombinant human RNase L, percent hydrolysis of poly(U)-3'-[^32 P]pCp” value is 37.4%.

With “N^6 -Benzyladenylyl-(2'-5')-N^6 -benzyladenylyl-(2'-5')-N^6 -benzyladenosine Bis(triethylammonium) Salt [Compound 25]”, the “Syn: inhibition … (fold reduction)” value in the assay on HIV-1 is listed as more than 1500 fold. In addition, in assay [1], the “RT: percent inhibition” value was 10.6%. Also, the “RNase L: activation of recombinant human RNase L, percent hydrolysis of poly(U)-3'-[^32 P]pCp” value in assay [2] is 13.6%.

In the case of “N^6 -Benzyladenylyl-(2'-5')-adenylyl-(2'-5')-adenosine Bis(triethylammonium) Salt [Compound 24]”, the “Syn: inhibition … (fold reduction)” value with HIV-1 is listed as more than 1500 fold. The “RT: percent inhibition” value in assay [1] amounted to 16.7%. Besides, in assay [2], the “RNase L: activation of recombinant human RNase L, percent hydrolysis of poly(U)-3'-[^32 P]pCp” value is recorded as 0%.
